Consider one compound from patent US12486495B2, “Cardiac organoid, manufacturing method therefor, and method for evaluating drug toxicity by using same” (priority 2020, dated 2025).

Structures are written as SMILES.

This data set relates to cardiac organoid.

For `COc1ccc(CCN(C)CCCC(C#N)(c2ccc(OC)c(OC)c2)C(C)C)cc1OC` (stereo not shown) [verapamil], the “beating velocity after treatment with calcium antagonist” value (FIG. 13A, heat maps for beating velocity, after drug treatment) is listed as “reduced”. In addition, the “beating velocity after washing” value (FIG. 13A, after washing and culturing for 1 hour) was “again increased”. Also, where the note is “comparison of three treatment amount groups (100 nM, 1 μM, 10 μM), FIG. 13B/13C”, the “conduction displacement after treatment” value is “highest in a 1 μM group”. In addition, under “comparison of three treatment amount groups, FIG. 13B/13C”, the “conduction displacement after washing” value was “highest in the 1 μM group”. Besides, the “beat rate variation after washing” value (comparison of three treatment amount groups, FIG. 13C) is “highest in the 10 μM group”. The “drug toxicity of the heart, comparison” value (inferred from beat rate variation at low treatment amount) is “higher than that of nifedipine”. For the same compound, the “treatment amount at which side effects in the heart in vivo may be caused” value (inferred from beat rate variation of the cardiac organoid) is reported as ≥ 100 nM.
